Tests used:
Assay type in all cases: cell-based, human
[1] = tested on: MDA-MB-468 and MDA-MB-231 breast adenocarcinoma cells; assay: Poly-ubiquitylated protein immunoblot, breast adenocarcinoma cells; conditions: 10 μM, 16 hours, MDA-MB-468 and MDA-MB-231
Description: FIG. 34A is an image of an immunoblot of MDA-MB-468 breast adenocarcinoma cells treated with 10 μM Sigma1 antagonist (IPAG) for the indicated times, up to 24 hours. Total cell lysates were resolved by SDS-PAGE and immunoblotted with a poly-ubiquitin antibody P4D1. FIG. 34B is an image of an immunoblot of HepG2 hepatocellular carcinoma cells treated for 20 hours with 10 μM of indicated Sigma1 ligands.
FIG. 59, comprising FIGS. 59A-59B, illustrates the finding that the novel Sigma1 ligand JMS-51-58 modulated the ubiquitin proteasome system. FIG. 59A is an image of an immunoblot evaluating the levels of poly-ubiquitylated proteins of MDA-MB-468 breast adenocarcinoma treated for 16 hours with 10 μM of JMS-51-58. FIG. 59B is an image of an immunoblot evaluating the levels of poly-ubiquitylated proteins of MDA-MB-231 breast adenocarcinoma cells treated for 16 hours with 10 μM of JMS-51-58. The levels of poly-ubiquitylated proteins were evaluated by immunoblot.

[2] = tested on: MDA-MB-468 and T47D breast adenocarcinoma cells; assay: ER stress response immunoblot (P-p38MAPK, GRP78/BiP); conditions: 10 μM, 16 hours
Description: FIG. 58A is an image of an immunoblot of MDA-MB-468 breast adenocarcinoma cells treated for 16 hours with 10 μM JMS-51-58. FIG. 58B is an image of an immunoblot of T47D breast adenocarcinoma cells treated for 16 hours with 10 μM JMS-51-58. The levels of phospho-Thr 180/Tyr 182 p38MAPK (P-p38MAPK) and GRP78/BiP and were evaluated by immunoblot.

MDA-MB-468 cells = assay: Cell death by trypan blue exclusion; conditions: 10 μM with bortezomib 1, 10, 100 nM, 20 hours
Description: Trypan blue exclusion and propidium iodide staining were used to quantify general cell death and the presence of apoptotic cell death was confirmed by immunoblot. The percentage of dead cells in a given population was determined by quantifying the number of trypan blue positive (dead) cells and dividing by the total number of trypan blue positive and negative cells.

[3] = tested on: MDA-MB-468 and T47D breast adenocarcinoma cells; assay: Translational arrest immunoblot (P-S6K, P-4E-BP1); conditions: 10 μM, 16 hours
Description: FIG. 57A is an image of an immunoblot illustrating MDA-MB-468 breast adenocarcinoma cells treated for 16 hours with 10 μM of JMS-51-58. FIG. 57B is an image of an immunoblot illustrating T47D breast adenocarcinoma cells treated for 16 hours with 10 μM of JMS-51-58. The levels of phosphothreonine 389-p70S6Kinase (P-S6K) and phosphoserine 65-4E-BP1 (P-4E-BP1) were evaluated by immunoblot. Decreased levels of both phosphoprotein levels indicated diminished protein synthesis.

[4] = tested on: MDA-MB-468, T47D, MDA-MB-231 and PC3 cells; assay: Cell proliferation by Alamar blue assay, tumor cell lines; conditions: four drug concentrations, 40-70 hours of treatment
Description: In vitro cell proliferation was quantified by Alamar blue assay. The anti-proliferative effects of four drug concentrations of novel Sigma1 small molecule ligand JMS-51-2nd-58 were quantified after 40-70 hours of treatment. Data are representative of an experiment formed in triplicate for each cell line. FIG. 60A is a graph illustrating cell death in MDA-MB-468 breast adenocarcinoma cell cultures. FIG. 60B is a graph illustrating cell death in T47D breast adenocarcinoma cell cultures. FIG. 60C is a graph illustrating cell death in MDA-MB-231 breast adenocarcinoma cell cultures. FIG. 60D is a graph illustrating cell death in PC3 prostate adenocarcinoma cell cultures.

MDA-MB-231 and PC3 cells = assay: In vitro cell adhesion by Alamar blue assay; conditions: 16 hours in the presence of drug
Description: In vitro cell adhesion was quantified by Alamar blue assay. MDA-MB-231 and PC3 cells were detached with 0.25% trypsin+2 mM EDTA and reseeded onto 96 well plates. At the time of cell seeding, IPAG (Sigma1 putative antagonist) was added at the indicated doses to wells containing adenocarcinoma cells. The suspended cells were allowed to sediment and adhere for 16 hours in the presence of drug. Subsequently, the culture medium was removed by aspiration, each well washed once with 0.2 ml PBS (without calcium and magnesium), and Alamar blue assay was performed to quantify the number of live cells adhered to the surface of each well. FIG. 63A is a graph illustrating cell adherence in MDA-MB-231 breast adenocarcinoma cells. FIG. 63B is a graph illustrating cell adherence in PC3 prostate adenocarcinoma cells. The same procedure was performed using the indicated concentrations of JMS-51-58. FIG. 63C is a graph illustrating cell adherence in MDA-MB-231 breast adenocarcinoma cells. FIG. 63D is a graph illustrating cell adherence in PC3 prostate adenocarcinoma cells. Standard deviation bars are shown.

[5] = tested on: MDA-MB-231 breast adenocarcinoma cells; assay: Alamar blue proliferation assay with bortezomib; conditions: ~70 hours
Description: FIG. 61, comprising FIGS. 61A-61B, is a set of graphs illustrating the finding that the novel Sigma1 ligand JMS-51-58 potentiated proteasome inhibitor mediated inhibition of tumor cell proliferation. In vitro cell proliferation was quantified by Alamar blue assay. The anti-proliferative effects of four drug concentrations of novel Sigma1 small molecule ligand JMS-51-58, were quantified after ˜70 hours of treatment of MDA-MB-231 breast adenocarcinoma cell cultures. […] Note the shift to the left of the dose-response curve (broken line). Data are representative of an experiment performed in triplicate.

[6] = tested on: MDA-MB-468 (GFP-LC3), MDA-MB-468 and T47D breast adenocarcinoma cells; assay: Autophagy markers (GFP-LC3II, GFP-LC3 punctae, endogenous LC3II); conditions: 10 μM, ~16 hours
Description: FIG. 56A is an immunoblot illustrating MDA-MB-468 breast adenocarcinoma cells stably transfected with GFP-LC3 (green fluorescent protein tagged light chain 3, an autophagy marker) treated for ˜16 hours with 10 μM IPAG or 10 μM 1-3 JMS-51-58. The appearance of GFP-LC3II was an indication of autophagosome formation. FIG. 56B is an image illustrating formation of autophagosomes (GFP-LC3 punctae) in MDA468 (GFP-LC3) treated with 10 μM JMS-51-58 as in FIG. 56A. The arrow points to an example of GFP-LC3-positive autophagosomes. The white bar at the bottom of the image indicates 100 μm. FIG. 56C is an image of an immunoblot illustrating the appearance of endogenous LC3II, a marker of autophagosome formation, in MDA-MB-468 breast adenocarcinoma cells treated for 16 hours with 10 μM of JMS-51-58. FIG. 56D is an image of an immunoblot illustrating the appearance of endogenous LC3II, a marker of autophagosome formation, in T47D breast adenocarcinoma cells treated for 16 hours with 10 μM JMS-51-58.

## N=C(NCCCOc1ccc(F)cc1)Nc1ccc(I)cc1 [JMS-51-58, 1-(3-(4-fluorophenoxy)propyl)-3-(4-iodophenyl)guanidine]
[1]
  levels of poly-ubiquitylated proteins: increased ubiquitylated protein levels compared to the DMSO control
[2]
  ER stress response: mediated ER stress response
MDA-MB-468 cells
  potentiation of proteasome inhibitor (bortezomib) mediated cell death: potentiated proteasome inhibitor mediated tumor cell death
[3]
  translational arrest (decreased P-S6K and P-4E-BP1): mediated translational arrest
[4]
  tumor cell proliferation: inhibited tumor cell proliferation
MDA-MB-231 and PC3 cells
  cell adhesion: inhibited adhesion of metastatic breast and prostate adenocarcinoma cell lines
[5]; 3 μM
  cell proliferation and rates of cell death: did not alter cell proliferation or rates of cell death
[5]; sub-lethal dose (3 μM)
  potentiation of bortezomib (BTZ) inhibition of cell proliferation: potentiated the cell proliferation inhibiting effects of bortezomib
[6]
  induction of autophagy: induced autophagy

Reference: patent publication US9388126B2, “Sigma receptor ligands and methods of modulating cellular protein homeostasis using same” (Drexel University, priority 2012, dated 2016)
